Patent US20250161446A1, “MODIFIED IMMUNE CELLS FOR TREATING AND/OR PREVENTING METASTASIS” (TECHNISCHE UNIVERSITÄT MÜNCHEN, priority 2022, published 2025)

Experiments:
[1] = system: NK cells; assay: Granzyme B expression in NK cells by flow cytometry; assay type: cell-based, mouse; details: untreated vs PGE2-treated NK cells
Procedure: (§1) For the isolation of mouse NK cells, the spleen was excised from mice and passed through a steel sieve. Red blood cells were lysed by incubating the cells with ammonium chloride potassium buffer for 2 min. Following filtration through a 70 μm cell strainer, CD49b^+ leukocytes were purified by immunomagnetic separation to enrich for CD49b^+ NK cells. Th cells were stained with anti-CD49b FITC, anti-CD3ε PerCP/Cy5.5, anti-CD19 PE/eF610 and CD64 PE/Cy7 for 15 min at 4° C. and NK cells, phenotypically identified as CD49b^+CD3ε^−CD19^−CD64^− cells, were FACS-sorted using a SH800 Cell Sorter. After isolation, NK cells were cultured in low doses of IL2 and IL15/IL15Ra for five days to rest the cells and generate functional NK cells.
(§2) Murine or human NK cells or CD8^+ T cells were treated with 1-100 ng/ml synthetic PGE2 or medium as control for 16 h at 37° C. For experiments with tumor factors (TF), cells were incubated in a 1:1 mixture of complete RPMI medium with TF-containing conditioned medium from cancer cells. […]
(§3) For flow cytometric analysis, cells were resuspended in staining buffer containing antibodies for surface molecules and incubated for 15 min. […] Intracellular staining of cytokines (including IFNγ and TNF) was performed in permeabilization buffer and cells were subsequently analyzed by flow cytometry. […]

[2] = system: human NK cells; assay: Human NK cell cytokine production upon stimulation with K562 (flow cytometry); assay type: cell-based; details: PGE2 16 h
From the text: (§4) Human NK cells and CD8+ T cells were isolated from blood of healthy, voluntary donors after they gave written and informed consent. Blood was mixed with PBS and loaded on Pancoll to isolate peripheral blood mononuclear cells (PBMCs) through centrifugation. NK cells were then isolated by negative selection using the Untouched Human NK Cell Isolation Kit (ThermoFisher). CD8+ T cells were then isolated by negative selection using the Untouched Human CD8+ T Cell Isolation Kit (Miltenyi).
as §2, with “cells. For the inhibitor studies, cells were first incubated with single EP receptor inhibitors (EP1-EP4) or inhibitor combinations at a concentration of 5 μM for 30 min, before adding 100 ng/ml PGE2 for 16 h at 37° C.” for “cells.”
as §3

[3] = system: human CD8^+ T cells; assay: Human CD8^+ T cell expansion after anti-CD3/CD28+IL-12 stimulation; assay type: cell-based; details: PGE2 16 h, expansion 72 h later
From the text: as §4
(§5) Murine or human NK cells or CD8^+ T cells were treated with 1-100 ng/ml synthetic PGE2 or medium as control for 16 h at 37° C. For experiments with tumor factors (TF), cells were incubated in a 1:1 mixture of complete RPMI medium with TF-containing conditioned medium from cancer cells. For the inhibitor studies, cells were first incubated with single EP receptor inhibitors (EP1-EP4) or inhibitor combinations at a concentration of 5 μM for 30 min, before adding 100 ng/ml PGE2 for 16 h at 37° C. For the RNA and ATAC sequencing approach, NK cells were only pre-treated for 1 h with PGE2 and then stimulated (as described below) for further 4 h.
(§6) To assess T cell differentiation and expansion, CD8^+ T cells were stimulated with anti-CD3/CD28 microbeads plus Interleukin-12 (10 ng/ml), mimicking their activation in metastasis or tumor tissue, and cell numbers were quantified 72 h later by flow cytometry.

[4] = system: NK cells; assay: Cytokine release assay of mouse NK cells upon anti-NK1.1 stimulation (ELISA, multiplex); assay type: cell-based
Procedure: as §1
as §5, with “For” for “Murine or human NK cells or CD8^+ T cells were treated with 1-100 ng/ml synthetic PGE2 or medium as control for 16 h at 37° C. For”
To assess cytokine and chemokine production and degranulation, NK cells were stimulated with plate-bound anti-NK1.1 (PK136), mimicking their activation in metastasis. Human NK cells were activated by incubation with the human […] cell line K562. For analysis of cytokine and chemokine production, Brefeldin A was added 1 h after stimulation to block intracellular protein transport processes. 3 h later, cells were stained for flow cytometric analysis. For analysis of degranulation, stimulation was done in presence of anti-LAMP-1 antibody, and Monensin was added 1 h later to prevent acidification of endolytic vesicles.
To assess the production of cytokines in cell culture supernatants, NK cells were stimulated for 16 h and cell-free supernatants were harvested and stored at −20° C. until further use. Cytokine concentrations in the culture supernatants were measured by enzyme-linked immunosorbent assays (ELISA) or a multiplex cytokine assay (Bio-Plex Pro Mouse Cytokine 23-plex).

[5] = system: NK cells; assay: NK cell degranulation (LAMP-1 staining) upon anti-NK1.1 stimulation; assay type: cell-based, mouse; details: PGE2 pre-treatment 16 h
Procedure: as §1
as §5, with “h. […]” for “h.”

[6] = system: BRAF^V600E tumor cells; assay: NK cell cytotoxicity assay (xCelligence impedance); assay type: cell-based, mouse; details: PGE2-treated NK cells co-cultured with tumor cells
Procedure: Measurement of the dynamics of NK cell cytotoxicity against BRAF^V600E tumor cells over time was performed with the impedance-based technology using an xCelligence RTCA MP device (ACEA Biosciences). The xCELLigence RTCA system measures changes in impedance generated by adherence of cells to electrodes on the bottom of the wells of E-Plates and calculates a parameter called Cell Index. For the assays, tumor cells were seeded in 96-well E-plates. After tumor cells reached confluency and a maximum cell index, in vitro cultured NK cells were added in different effector-to-target ratios. Killing was measured by declining cell index values. Percentage of specific cytotoxicity was finally calculated to the index values from tumor cells alone.

[7] = system: mouse CD8^+ T cells; assay: Mouse CD8^+ T cell expansion after anti-CD3/CD28+IL-12 stimulation; assay type: cell-based; details: PGE2 16 h, expansion 72 h later
Procedure: For the isolation of mouse CD8^+ T cells, the spleen was excised from mice and passed through a steel sieve. Red blood cells were lysed by incubating the cells with ammonium chloride potassium buffer for 2 min. Following filtration through a 70 μm cell strainer, CD8^+ T cells were purified by immunomagnetic separation using anti-CD8 microbeads. After isolation, CD8^+ T cells were cultured with low dose IL2 and CD3/CD28 stimulatory beads to generate effector-like CD8+ T cells for in vitro assays.
as §5, with “For the RNA and ATAC sequencing approach, NK cells were only pre-treated for 1 h with PGE2 and then stimulated (as described below) for further 4 h.” left out
as §6

[8] = anti-NK1.1 stimulation in presence of PGE2

`CCCCC[C@H](O)/C=C/[C@H]1[C@H](O)CC(=O)[C@@H]1C/C=C\CCCC(=O)O` [PGE2, prostaglandin E2] was tested, and the “granzyme B levels in NK cells” value [1] was “unaffected”, the “cytokine and chemokine production (IFNγ, TNF, XCL1) by human NK cells” value [2] was “impaired the cytokine and chemokine production” and the “expansion of human CD8^+ T cells upon stimulation” value [3] was “Identical findings”. For the same compound, the “XCL1 secretion after transient PGE2 treatment” value ([4]; PGE2 24 h, then removed for 24 h before anti-NK1.1 stimulation) was “strong inhibitory effects”, the “IFNγ release by NK cells” value [4, 8] was “markedly reduced in a dose-dependent manner” and the “XCL1 release by NK cells” value [4, 8] was “markedly reduced in a dose-dependent manner”. The “secretion of other effector cytokines, chemokines and growth factors by NK cells” value ([4]; upon stimulation, multiplex assay) was “diminished the secretion”, the “degranulation (LAMP-1 staining) of NK cells” value [5] was “only slightly reduced” and the “NK cell mediated killing of tumor cells” value [6] was “effectively eliminate the tumor cells”. For the same compound, the “expansion of mouse CD8^+ T cells upon stimulation” value [7] was “strongly impaired”.
